# Reference: paper PMC12067444, “Synthesis and Pharmacological Characterization of Novel Peripheral Cannabinoid-1 Receptor Blockers Based on a Tricyclic Scaffold” (Journal of Medicinal Chemistry, 2025)
# Tests used:
# [1] = Stability in simulated intestinal fluid (SIF); format: in vitro ADME
# TA98 = assay: Mini-Ames assay, strain TA98; format: cell-based; settings: for F value: fold vs DMSO; for Growth of lawn: replicates 1-3;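 on solubility: P0 means no precipitate in solution and no crystal growth on plates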
# Description: Mini Am es assay. To conduct the assay, top agar was melted with a microwave and maintained at a temper atur e ≥47 °C in a water bath. T he assay was performed using a heat block set to 45 °C ± 2 °C. 12 × 75 mm test tubes were prepared in duplicates. For each concentration, the following components were added sequentially to a test tube:
# […] The mixture was vortexed and then dispensed into w ells using a dispo sable pipette. The plates wer e then incubated at 37±2 °C for approximately 48 to 72 hours.
# BBbbbb BBBBbbbb BBBB = AAAAbbbbbbAAbb nnnnnnbbbbbb bboo bbbbAAbbbbbbbbnnbbbb oobbbb bbbb eeee dd bbbbbb AAbbbbnn gg AAAAbbbbbbAAbb nnnnnnbbbbbb bbBB bbbbAAbbbbbbbbnnbbbb BBbbbb DDDDDDDD nn bbAAbbbbaaAAbb AAbbbbnnaa The mutagenicity of the compound was determined by evaluating the number of revertant colonies in strains TA98 and TA100. A compound was […]
# related and if the fold increase in revertants (F) was equal to or greater than 2 for […]
# background lawn growth on the agar plates. A scoring system ranging from 0 to 4 […]
# growth, respectively. A score of 4 signified full '100%' growth. […]
# background lawn and required magnification for visualization. […]
# [2] = Stability in simulated gastric fluid (SGF); format: in vitro ADME
compound,measurement,setting,value
"O=S(=O)(NC1CCCOc2c1nn(-c1ccccc1Cl)c2-c1ccc(Cl)cc1)c1ccc(Cl)cc1 (stereo not drawn) [BNS808, 4-chloro-N-[2-(2-chlorophenyl)-3-(4-chlorophenyl)-5,6,7,8-tetrahydrooxepino[3,2-c]pyrazol-8-yl]benzenesulfonamide]",amount in SIF with pancreatin,[1]; 0 h,2.972 mg
same,"amount in SIF, no pancreatin",[1]; 0 h,3.257 mg
same,Initial amount (%) in SIF with pancreatin,[1]; 1 h,102%
same,"Initial amount (%) in SIF, no pancreatin",[1]; 1 h,101%
same,amount in SIF with pancreatin,[1]; 1 h,3.023 mg
same,"amount in SIF, no pancreatin",[1]; 1 h,3.277 mg
same,Initial amount (%) in SIF with pancreatin,[1]; 3 h,101%
same,"Initial amount (%) in SIF, no pancreatin",[1]; 3 h,100%
same,amount in SIF with pancreatin,[1]; 3 h,3.0009 mg
same,"amount in SIF, no pancreatin",[1]; 3 h,3.266 mg
same,Stability in SIF,[1]; with and without pancreatin,Stable
same,Number of revertants MEAN,"TA98; TA98, +S9, 31.25 μg/well",10.67
same,solubility,"TA98; TA98, +S9, 31.25 μg/well",P0
same,F value,"TA98; TA98, +S9, 31.25 μg/well",0.97
same,Growth of lawn,"TA98; TA98, +S9, 31.25 μg/well",4 (A score of 4 signified full '100%' growth)
same,Number of revertants MEAN,"TA98; TA98, +S9, 62.5 μg/well",11.33
same,solubility,"TA98; TA98, +S9, 62.5 μg/well",P0
same,F value,"TA98; TA98, +S9, 62.5 μg/well",1.03
same,Growth of lawn,"TA98; TA98, +S9, 62.5 μg/well",4 (A score of 4 signified full '100%' growth)
same,Number of revertants MEAN,"TA98; TA98, +S9, 125 μg/well",11.33
same,solubility,"TA98; TA98, +S9, 125 μg/well",P0
same,F value,"TA98; TA98, +S9, 125 μg/well",1.03
same,Growth of lawn,"TA98; TA98, +S9, 125 μg/well",4 (A score of 4 signified full '100%' growth)
same,Number of revertants MEAN,"TA98; TA98, +S9, 250 μg/well",13.00
same,solubility,"TA98; TA98, +S9, 250 μg/well",P1 (0~20% growth of crystals)
same,F value,"TA98; TA98, +S9, 250 μg/well",1.18
same,Growth of lawn,"TA98; TA98, +S9, 250 μg/well",4 (A score of 4 signified full '100%' growth)
same,Number of revertants MEAN,"TA98; TA98, +S9, 500 μg/well",10.00
same,solubility,"TA98; TA98, +S9, 500 μg/well",P2 (20%~60% growth of crystals)
same,F value,"TA98; TA98, +S9, 500 μg/well",0.91
same,Growth of lawn,"TA98; TA98, +S9, 500 μg/well",4 (A score of 4 signified full '100%' growth)
same,Number of revertants MEAN,"TA98; TA98, +S9, 1000 μg/well",9.67
same,solubility,"TA98; TA98, +S9, 1000 μg/well",P3 (60%~100% growth of crystals)
same,F value,"TA98; TA98, +S9, 1000 μg/well",0.88
same,Growth of lawn,"TA98; TA98, +S9, 1000 μg/well",4 (A score of 4 signified full '100%' growth)
same,Number of revertants MEAN,"TA98; TA98, -S9, 31.25 μg/well",6.67
same,solubility,"TA98; TA98, -S9, 31.25 μg/well",P0
same,F value,"TA98; TA98, -S9, 31.25 μg/well",0.91
same,Growth of lawn,"TA98; TA98, -S9, 31.25 μg/well",4 (A score of 4 signified full '100%' growth)
same,Number of revertants MEAN,"TA98; TA98, -S9, 62.5 μg/well",8.67
same,solubility,"TA98; TA98, -S9, 62.5 μg/well",P0
same,F value,"TA98; TA98, -S9, 62.5 μg/well",1.18
same,Growth of lawn,"TA98; TA98, -S9, 62.5 μg/well",4 (A score of 4 signified full '100%' growth)
same,Number of revertants MEAN,"TA98; TA98, -S9, 125 μg/well",7.33
same,solubility,"TA98; TA98, -S9, 125 μg/well",P0
same,F value,"TA98; TA98, -S9, 125 μg/well",1.00
same,Growth of lawn,"TA98; TA98, -S9, 125 μg/well",4 (A score of 4 signified full '100%' growth)
same,Number of revertants MEAN,"TA98; TA98, -S9, 250 μg/well",4.00
same,solubility,"TA98; TA98, -S9, 250 μg/well",P1 (0~20% growth of crystals)
same,F value,"TA98; TA98, -S9, 250 μg/well",0.55
same,Growth of lawn,"TA98; TA98, -S9, 250 μg/well",4 (A score of 4 signified full '100%' growth)
same,Number of revertants MEAN,"TA98; TA98, -S9, 500 μg/well",5.33
same,solubility,"TA98; TA98, -S9, 500 μg/well",P2 (20%~60% growth of crystals)
same,F value,"TA98; TA98, -S9, 500 μg/well",0.73
same,Growth of lawn,"TA98; TA98, -S9, 500 μg/well",4 (A score of 4 signified full '100%' growth)
same,Number of revertants MEAN,"TA98; TA98, -S9, 1000 μg/well",3.33
same,solubility,"TA98; TA98, -S9, 1000 μg/well",P3 (60%~100% growth of crystals)
same,F value,"TA98; TA98, -S9, 1000 μg/well",0.45
same,Growth of lawn,"TA98; TA98, -S9, 1000 μg/well",4 (A score of 4 signified full '100%' growth)
same,amount in SGF with pepsin,[2]; 0 h,2.753 mg
same,"amount in SGF, no pepsin",[2]; 0 h,2.826 mg
same,Initial amount (%) in SGF with pepsin,[2]; 1 h,98%
same,"Initial amount (%) in SGF, no pepsin",[2]; 1 h,102%
same,amount in SGF with pepsin,[2]; 1 h,2.69 mg
same,stability in SGF and SIF,[2]; summary column covering SGF and SIF,stable
same,Stability in SGF,[2]; with and without pepsin,Stable
